# According to patent US10407428B2, “Spiro-isoquinoline-1,4′-piperidine compounds having multimodal activity against pain” (ESTEVE PHARMACEUTICALS, S.A., priority 2014, dated 2019):
# Target: human σ1 receptor and human μ-opioid receptor
# Assay: Human σ1 receptor radioligand assay and human μ-opioid receptor radioligand assay (μ and σ1 dual binding)
# Design: key to μ and σ1 dual binding: +: Both Ki-μ and Ki-σ1>=500 nM; ++: One Ki<500 nM while the other Ki is >=500 nM; +++: Both Ki-μ and Ki-σ1<500 nM; ++++: Both Ki-μ and Ki-σ1<100 nM
# Conditions: not given
SMILES,Ki,μ and σ1 dual binding
"CN1CCc2ccccc2C12CCN(CC(O)c1ccncc1)CC2 (centres unmarked) [Example 98, 2-(2-methyl-3,4-dihydro-2H-spiro[isoquinoline-1,4′-piperidine]-1′-yl)-1-(pyridin-4-yl)ethanol]",< 500 nM,–
"CN1CCc2ccccc2C12CCN(C[C@H](O)c1ccncc1)CC2 [Example 99, (R)-2-(2-methyl-3,4-dihydro-2H-spiro[isoquinoline-1,4′-piperidine]-1′-yl)-1-(pyridin-4-yl)ethanol]",< 500 nM,–
"CN1CCc2ccccc2C12CCN(C[C@@H](O)c1ccncc1)CC2 [Example 100, (S)-2-(2-methyl-3,4-dihydro-2H-spiro[isoquinoline-1,4′-piperidine]-1′-yl)-1-(pyridin-4-yl)ethanol]",< 500 nM,–
"CCN(CC1CC1)C(=O)CN1CCC2(CC1)c1ccccc1CCN2C [Example 101, N-(cyclopropylmethyl)-N-ethyl-2-(2-methyl-3,4-dihydro-2H-spiro[isoquinoline-1,4′-piperidine]-1′-yl)acetamide]",< 500 nM,–
"CC(C)N(C(=O)CN1CCC2(CC1)c1ccccc1CCN2C)C(C)C [Example 102, N,N-diisopropyl-2-(2-methyl-3,4-dihydro-2H-spiro[isoquinoline-1,4′-piperidine]-1′-yl)acetamide]",–,++
"CC(C)N(C)C(=O)CN1CCC2(CC1)c1ccccc1CCN2C [Example 103, N-isopropyl-N-methyl-2-(2-methyl-3,4-dihydro-2H-spiro[isoquinoline-1,4′-piperidine]-1′-yl)acetamide]",< 500 nM,–
"CCN(CC(C)C)C(=O)CN1CCC2(CC1)c1ccccc1CCN2C [Example 104, N-ethyl-N-isobutyl-2-(2-methyl-3,4-dihydro-2H-spiro[isoquinoline-1,4′-piperidine]-1′-yl)acetamide]",–,++
"CCCN(CC)C(=O)CN1CCC2(CC1)c1ccccc1CCN2C [Example 105, N-ethyl-2-(2-methyl-3,4-dihydro-2H-spiro[isoquinoline-1,4′-piperidine]-1′-yl)-N-propylacetamide]",–,++
"CCN(C(=O)CN1CCC2(CC1)c1ccccc1CCN2C)C1CC1 [Example 106, N-cyclopropyl-N-ethyl-2-(2-methyl-3,4-dihydro-2H-spiro[isoquinoline-1,4′-piperidine]-1′-yl)acetamide]",< 500 nM,–
"CCCN(C(=O)CN1CCC2(CC1)c1ccccc1CCN2C)C(C)C [Example 107, N-isopropyl-2-(2-methyl-3,4-dihydro-2H-spiro[isoquinoline-1,4′-piperidine]-1′-yl)-N-propylacetamide]",–,++
"COCCN(C(=O)CN1CCC2(CC1)c1ccccc1CCN2C)C(C)C [Example 108, N-isopropyl-N-(2-methoxyethyl)-2-(2-methyl-3,4-dihydro-2H-spiro[isoquinoline-1,4′-piperidine]-1′-yl)acetamide]",–,++
"CCC(CC)N(CC)C(=O)CN1CCC2(CC1)c1ccccc1CCN2C [Example 109, N-ethyl-2-(2-methyl-3,4-dihydro-2H-spiro[isoquinoline-1,4′-piperidine]-1′-yl)-N-(pentan-3-yl)acetamide]",–,++
"CCC(CC)N(C)C(=O)CN1CCC2(CC1)c1ccccc1CCN2C [Example 111, N-methyl-2-(2-methyl-3,4-dihydro-2H-spiro[isoquinoline-1,4′-piperidine]-1′-yl)-N-(pentan-3-yl)acetamide]",< 500 nM,–
"CN(CC1CC1)C(=O)CN1CCC2(CC1)c1ccccc1CCN2C [Example 112, N-(cyclopropylmethyl)-N-methyl-2-(2-methyl-3,4-dihydro-2H-spiro[isoquinoline-1,4′-piperidine]-1′-yl)acetamide]",< 500 nM,–
"CN1CCc2ccccc2C12CCN(CC(O)c1ccncc1F)CC2 (centres unmarked) [Example 113, 1-(3-fluoropyridin-4-yl)-2-(2-methyl-3,4-dihydro-2H-spiro[isoquinoline-1,4′-piperidine]-1′-yl)ethanol]",< 500 nM,–
"CC1CCN(C(=O)CN2CCC3(CC2)c2ccccc2CCN3C)CC1 [Example 114, 2-(2-Methyl-3,4-dihydro-2H-spiro[isoquinoline-1,4′-piperidine]-1′-yl)-1-(4-methylpiperidin-1-yl)ethanone]",< 500 nM,–
"CN(Cc1ccccn1)C(=O)CN1CCC2(CC1)c1ccccc1CCN2C [Example 116, N-methyl-2-(2-methyl-3,4-dihydro-2H-spiro[isoquinoline-1,4′-piperidine]-1′-yl)-N-(pyridin-2-ylmethyl)acetamide]",–,++

SMILES,Ki,μ and σ1 dual binding
"CN1CCc2ccccc2C12CCN(CCc1cccc(N)c1)CC2 [Example 117, 3-[2-(2-Methyl-3,4-dihydro-2H-spiro[isoquinoline-1,4′-piperidin]-1′-yl)-ethyl]-phenylamine]",< 100 nM,–
"CN1CCc2ccccc2C12CCN(CCc1cccc(NS(C)(=O)=O)c1)CC2 [Example 118, N-(3-(2-(2-Methyl-3,4-dihydro-2H-spiro[isoquinoline-1,4′-piperidin]-1′-yl)ethyl)phenyl)methanesulfonamide]",< 100 nM,–
"CC(=O)Nc1cccc(CCN2CCC3(CC2)c2ccccc2CCN3C)c1 [Example 119, N-{3-[2-(2-Methyl-3,4-dihydro-2H-spiro[isoquinoline-1,4′-piperidin]-1′-yl)-ethyl]-phenyl}-acetamide]",< 500 nM,–
"CN1CCc2ccccc2C12CCN(CC(O)c1ccccc1)CC2 (centres unmarked) [Example 120, 2-(2-Methyl-3,4-dihydro-2H-spiro[isoquinoline-1,4′-piperidin]-1′-yl)-1-phenyl-ethanol]",< 500 nM,–
"CN1CCc2ccccc2C12CCN(CCc1ccncc1)CC2 [Example 121, 2-Methyl-1′-(2-(pyridin-4-yl)ethyl)-3,4-dihydro-2H-spiro[isoquinoline-1,4′-piperidine]]",< 500 nM,–
"COCCN1CCc2ccccc2C12CCN(CCc1ccccc1)CC2 [Example 122, 2-(2-Methoxyethyl)-1′-phenethyl-3,4-dihydro-2H-spiro[isoquinoline-1,4′-piperidine]]",< 500 nM,–
"OCCN1CCc2ccccc2C12CCN(CCc1ccccc1)CC2 [Example 123, 2-(1′-Phenethyl-3,4-dihydro-2H-spiro[isoquinoline-1,4′-piperidin]-2-yl)ethanol]",< 100 nM,–
"OCCN1CCc2ccccc2C12CCN(CCc1cccnc1)CC2 [Example 125, 2-[1′-(2-Pyridin-3-yl-ethyl)-3,4-dihydro-spiro[isoquinoline-1,4′-piperidin]-2-yl]-ethanol]",< 500 nM,–
"O=C(CN1CCC2(CC1)c1ccccc1CCN2CCO)N1CCCCC1 [Example 126, 2-(2-(2-Hydroxyethyl)-3,4-dihydro-2H-spiro[isoquinoline-1,4′-piperidine]-1′-yl)-1-(piperidin-1-yl)ethanone]",–,++
"OCCN1CCc2ccccc2C12CCN(CCc1cncc(F)c1)CC2 [Example 127, 2-(1′-(2-(5-fluoropyridin-3-yl)ethyl)-3,4-dihydro-2H-spiro[isoquinoline-1,4′-piperidin]-2-yl)etanol]",< 500 nM,–
"OCCN1CCc2ccccc2C12CCN(CCc1cncc(C(F)(F)F)c1)CC2 [Example 128, 2-(1′-(2-(5-(trifluoromethyl)pyridin-3-yl)ethyl)-3,4-dihydro-2H-spiro[isoquinoline-1,4′-piperidine]-2-yl)ethanol]",< 500 nM,–
"OCCN1CCc2ccccc2C12CCN(CCc1ccncc1)CC2 [Example 129, 2-(1′-(2-(pyridin-4-yl)ethyl)-3,4-dihydro-2H-spiro[isoquinoline-1,4′-piperidine]-2-yl)ethanol]",–,++
"OCCN1CCc2ccccc2C12CCN(CCc1ccncc1F)CC2 [Example 130, 2-(1′-(2-(3-Fluoropyridin-4-yl)ethyl)-3,4-dihydro-2H-spiro[isoquinoline-1,4′-piperidine]-2-yl)ethanol]",< 500 nM,–
"CN1CCc2cc(O)ccc2C12CCN(CCc1ccccc1)CC2 [Example 131, 2-Methyl-1′-phenethyl-3,4-dihydro-2H-spiro[isoquinoline-1,4′-piperidin]-6-ol]",< 100 nM,–
"FC(F)(F)CN1CCc2ccccc2C12CCN(CCc1ccccc1)CC2 [Example 133, 1′-Phenethyl-2-(2,2,2-trifluoroethyl)-3,4-dihydro-2H-spiro[isoquinoline-1,4′-piperidine]]",< 100 nM,–
"O=C(CN1CCC2(CC1)c1ccccc1CCN2CC(F)(F)F)N1CCOCC1 [Example 134, 1-Morpholino-2-(2-(2,2,2-trifluoroethyl)-3,4-dihydro-2H-spiro[isoquinoline-1,4′-piperidine]-1′-yl)ethanone]",–,++
"O=C(CN1CCC2(CC1)c1ccccc1CCN2CC(F)(F)F)N1CCCCC1 [Example 135, 1-(piperidin-1-yl)-2-(2-(2,2,2-trifluoroethyl)-3,4-dihydro-2H-spiro[isoquinoline-1,4′-piperidine]-1′-yl)ethanone]",–,++

# Same assay, conditions: combined class for Ki-μ ([3H]-DAMGO, CHO-K1 membranes) and Ki-σ1 ([3H](+)-pentazocine, HEK-293 membranes)
row,SMILES,Ki
1,"CC(C)CN(C(=O)CN1CCC2(CC1)c1ccccc1CCN2C)C(C)C [Example 110, N-isobutyl-N-isopropyl-2-(2-methyl-3,4-dihydro-2H-spiro[isoquinoline-1,4′-piperidine]-1′-yl)acetamide]",≥ 500 nM
2,"C[C@@H]1CN(C(=O)CN2CCC3(CC2)c2ccccc2CCN3C)C[C@H](C)O1 [Example 115, 1-((2S,6R)-2,6-dimethylmorpholino)-2-(2-methyl-3,4-dihydro-2H-spiro[isoquinoline-1,4′-piperidine]-1′-yl)ethanone]",≥ 500 nM
3,"COCCN1CCc2ccccc2C12CCN(CCc1cccnc1)CC2 [Example 124, 2-(2-Methoxyethyl)-1′-(2-(pyridin-3-yl)ethyl)-3,4-dihydro-2H-spiro[isoquinoline-1,4′-piperidine]]",≥ 500 nM
4,"O=C(N1CCc2ccccc2C12CCN(CCc1ccccc1)CC2)C(F)(F)F [Example 132, 2,2,2-Trifluoro-1-(1′-phenethyl-3,4-dihydro-2H-spiro[isoquinoline-1,4′-piperidine]-2-yl)ethanone]",≥ 500 nM
